What all share (type): in vivo, Sprague-Dawley rats
In assay [1] the test system is second-order neurons in the trigeminal nucleus caudalis. Briefly: Electrical stimulus-induced windup of trigeminal nucleus caudalis neurons. The conditions noted are these: rat, intranasal 0.025 ml of 0.05 mg/ml. An excerpt:
Male Sprague-Dawley rats (Charles River Laboratories) were anesthetized with isoflurane and used in the following experiments. […] Needle electrodes were inserted subcutaneously at the site indicated in FIG. 5A by the black spot on the rat's head, and the skin was stimulated at 0.66 Hz, 2 msec duration, 3× C-fiber threshold for >25 times.

Assay [2] relates to trigeminal nucleus caudalis wide dynamic range (WDR) neurons. The assay can be described thus: Long-pulse laser-induced responses of trigeminal nucleus caudalis WDR neurons. The conditions noted are these: rat, intranasal 0.025 ml of 0.05 mg/ml. How it is done: Male Sprague-Dawley rats (Charles River Laboratories) were anesthetized with isoflurane and used in the following experiments. In the anesthetized rats, single unit, extracellular recordings were performed in trigeminal nucleus caudalis while stimulating the ipsilateral facial skin with diode laser or constant-current bipolar electrical stimulation. Epoxylate-insulated, tungsten microelectrodes (10 MOhm) were used under stereotaxic coordinate control. […] Shown are responses (action potentials per second) to an 8 second-duration, 425 mA intensity laser stimulus to the site indicated by the black spot on a map of the rat's face (FIG. 4E).

Assay [3] shares this test system. Briefly: Electrical stimulation-induced responses of trigeminal nucleus caudalis WDR neurons, single unit extracellular recording. The conditions noted are these: rat. How it is done: Male Sprague-Dawley rats (Charles River Laboratories) were anesthetized with isoflurane and used in the following experiments. In the anesthetized rats, single unit, extracellular recordings were performed in trigeminal nucleus caudalis while stimulating the ipsilateral facial skin with constant-current bipolar electrical stimulation. Epoxylate-insulated, tungsten microelectrodes (10 MOhm) were used under stereotaxic coordinate control.
Shown are responses (action potentials per 30 stimuli) to repeated stimulation of a rat's face before oxytocin administration (pre-oxytocin). After administration with oxytocin at approximately 0.1 IU, responses were recorded every five minutes for 65 minutes. A second administration of oxytocin at the same dosage was administered at approximately 70 minutes after the first dose. The approximate site of the administration of the electrical stimulation is indicated by the black spot on a map of the rat's face (FIG. 3B).

Assay [4] relates to pain sensing nerve cells in the trigeminal ganglion. The assay can be described thus: Nerve impulses of single pain sensing nerve cells in the trigeminal ganglion in response to noxious laser pulses to the face. The conditions noted are these: rat, 10 nmoles applied to the nose. How it is done: Sprague-Dawley rats (Charles River Laboratories) were anesthetized with isofluorane and a platinum electrode was inserted transcranially into the trigeminal ganglion. Nerve impulses (action potential) were recorded from single pain sensing nerve cells in the trigeminal ganglion in response to application of noxious laser pulses to the face of the rats. After recording responses to several identical laser pulses, 10 nmoles of oxytocin was applied to the nose of the rats. Thereafter, identical laser pulses were once again applied and recorded.

The nature of assay [5]: Withdrawal latencies after noxious laser thermal stimulation of ears or hindpaws after intranasal administration. The conditions noted are these: rat, intranasal 10 nmoles/kg, tested from five minutes after final application. An excerpt:
One way to test activity of an analgesic agent in a rat model is by treatment-induced changes in latencies (times) of withdrawal in response to noxious heating of the skin, typically using an ear, the face or a hindpaw. Thus, application of coherent or non-coherent (non-laser) radiant heat to the ear, the face or hindpaw will elicit rapid withdrawal movements. […] Transmucosal or transdermal administration of analgesic agents to the trigeminal nerve to reduce trigeminal nerve-associated pain can be tested for regional and/or systemic analgesia. The rostral external part of a rat's ear is innervated by a branch of the mandibular nerve, itself a branch of the trigeminal nerve, thus after treatment an increase in latency to withdrawal time would indicate regional analgesia. […]
Sprague-Dawley rats (Charles River Laboratories) were lightly anesthetized with urethane and placed with minimal restraint on a heating pad to maintain their body temperature at 37° C. […] Baseline withdrawal latencies were measured by delivering 4 separate stimuli with a resting period of approximately 15 minutes between each stimulus. […] As described above, testing sessions were videotaped and analyzed.

Where [6] appears, read: intranasal approximately 0.1 IU, first dose.

On to `C[C@@H](O)[C@@H]1NC(=O)[C@H](CCCCN)NC(=O)[C@@H](Cc2c[nH]c3ccccc23)NC(=O)[C@H](Cc2ccccc2)NC(=O)[C@@H](NC(=O)[C@H](N)Cc2ccccc2)CSSC[C@@H](C(=O)N[C@H](CO)[C@@H](C)O)NC1=O` [octreotide], for which the “total number of action potentials during the stimulation period, 10 minutes after administration” value in assay [1] (0.66 Hz, 2 msec, 3x C-fiber threshold, 506 before treatment) is on record as 408. Moreover, the “reduction of total number of action potentials, 10 minutes after administration” value in assay [1] (versus before treatment) was found to be 19.4%. For the same compound, the “response 25 minutes post-treatment” value in assay [2] is listed as “recovered”. Moreover, in assay [2] (8 second 425 mA laser stimulus to face), the “response five minutes post-treatment” value is “no detectable reduction in response”. In addition, the “response at 10 minutes post-treatment” value in assay [2] (8 second 425 mA laser stimulus, baseline 42 spikes) is given as 5 spikes. Moreover, in assay [2] (versus pre-treatment baseline), the “reduction of response at 10 minutes post-treatment” value came to 88%.
Take `CC[C@H](C)[C@@H]1NC(=O)[C@H](Cc2ccc(O)cc2)NC(=O)[C@@H](N)CSSC[C@@H](C(=O)N2CCC[C@H]2C(=O)N[C@@H](CC(C)C)C(=O)NCC(N)=O)NC(=O)[C@H](CC(N)=O)NC(=O)[C@H](CCC(N)=O)NC1=O` [Oxytocin, Cys-Tyr-Ile-Gln-Asn-Cys-Pro-Leu-Gly]: the “responses (action potentials per 30 stimuli) after first administration (FIG. 3A)” value in assay [3] (intranasal approximately 0.1 IU, electrical stimulation of facial skin) is “significant reduction in responses”. In assay [3] (setting [6]), the “time after first administration at which significant reduction in responses began” value worked out at 10 min and the “time post treatment until which reduction continued, when responses began to increase” value is 50 min. The “time to significant reduction in responses after second treatment” value in assay [3] (second dose approximately 0.1 IU at approximately 70 minutes after the first) is at most 10 min. Also, the “neuronal response (average nerve impulses per laser pulse) post- vs pre-treatment (FIG. 2)” value in assay [4] is reported as “significantly (p<0.05) reduced”.
For Tyr-Gly-Gly-Phe-Met [met-enkephalin], in assay [5] (laser stimulation of ears), the “analgesic effect, ear withdrawal latency (FIG. 1A)” value was “achieved a regional analgesic effect in the head region”. Moreover, the “systemic analgesic effect, hindpaw withdrawal latency (FIG. 1B)” value in assay [5] (laser stimulation of hindpaws) is given as “without a systemic analgesic effect at the hindpaw”.

Source of the values: US20070093420A1, “Therapy procedure for drug delivery for trigeminal pain” (priority 2005, published 2007).
